# Results reported in US20110152166A1, “METHOD OF MODULATION OF PROTEIN PHOSPHORYLATION-DEPENDENT CONFORMATIONAL TRANSITIONS WITH LOW MOLECULAR WEIGHT COMPOUNDS” (priority 2006, published 2011).
# Substitutions are numbered along the chain they refer to. Where two headings read alike, the source gives them in different places. Ends that are not written are not given here.
# Key:
# Test in all cases: PDK1 activity assay with T308tide
# Format in all cases: biochemical
# GST-PDK1 [Val127Thr] = target: T1, GST-PDK1 [Val127Thr] (Homo sapiens, UniProt O15530, V127T); details: for AC50 / Max. activity: GST-PDK1 [Val127Thr]; for activation of PDK1 Val127Thr mutant: Val127 replaced by Thr
# T1 construct: different protein constructs, comprising the full length protein or the catalytic domain alone; made in house; host or cells: HEK293 cells (pEBG-2T-PDK1 mutant)
# T1 sequence (O15530 1-556 V127T): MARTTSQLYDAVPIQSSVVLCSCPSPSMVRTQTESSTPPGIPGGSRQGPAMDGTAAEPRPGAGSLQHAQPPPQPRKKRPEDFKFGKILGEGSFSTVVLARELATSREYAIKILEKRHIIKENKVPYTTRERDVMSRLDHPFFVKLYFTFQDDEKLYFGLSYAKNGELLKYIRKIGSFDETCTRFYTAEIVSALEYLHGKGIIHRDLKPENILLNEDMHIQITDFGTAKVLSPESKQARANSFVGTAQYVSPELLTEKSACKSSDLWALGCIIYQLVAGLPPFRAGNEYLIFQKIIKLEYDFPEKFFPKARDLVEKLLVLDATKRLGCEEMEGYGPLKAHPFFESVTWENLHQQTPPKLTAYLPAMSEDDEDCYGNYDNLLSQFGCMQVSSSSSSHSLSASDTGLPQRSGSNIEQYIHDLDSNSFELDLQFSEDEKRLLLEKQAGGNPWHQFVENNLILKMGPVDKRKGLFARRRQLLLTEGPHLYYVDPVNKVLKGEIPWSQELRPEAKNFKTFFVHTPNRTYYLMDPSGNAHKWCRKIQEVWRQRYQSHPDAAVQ
# GST-PDK1 [Arg131Met] = target: T2, GST-PDK1 [Arg131Met] (Homo sapiens, UniProt O15530, R131M)
# T2 construct: different protein constructs, comprising the full length protein or the catalytic domain alone; made in house; host or cells: HEK293 cells (pEBG-2T-PDK1 mutant)
# T2 sequence (O15530 1-556 R131M): T1 sequence (O15530 1-556 V127T) with T127V, R131M
# GST-PDK1 [Phe157Met] = target: T3, GST-PDK1 [Phe157Met] (Homo sapiens, UniProt O15530, F157M)
# T3 construct: different protein constructs, comprising the full length protein or the catalytic domain alone; made in house; host or cells: HEK293 cells (pEBG-2T-PDK1 mutant)
# T3 sequence (O15530 1-556 F157M): T1 sequence (O15530 1-556 V127T) with T127V, F157M
AC50 (GST-PDK1 [Val127Thr]),Max. activity (GST-PDK1 [Val127Thr]),activation of PDK1 Val127Thr mutant (GST-PDK1 [Val127Thr]),activation of PDK1 mutant (in words) (GST-PDK1 [Arg131Met]; Arg131 mutated to Met),AC50 (GST-PDK1 [Arg131Met]; GST-PDK1 [Arg131Met]),AC50 (GST-PDK1 [Phe157Met]),Max. activity (GST-PDK1 [Phe157Met]),Max. activity (GST-PDK1 [Arg131Met]; GST-PDK1 [Arg131Met]),"AC50 (GST-PDK1 [Arg131Met]; GST-PDK1 [Arg131Met], read-out: AC50)",Compound
104 ± 58 µM,1.69 ± 0.2 U/mg,240%,no longer activated,No Effect,140 ± 100 µM,0.9 ± 0.3 U/mg,–,–,O=C(O)CSC(CC(=O)c1ccc(Cl)cc1)c1ccccc1 (centres unmarked) [Compound 1]
0.14 ± 0.07 µM,2.36 ± 0.15 U/mg,260%,–,–,1.52 ± 0.59 µM,1.7 ± 0.24 U/mg,0.34 ± 0.06 U/mg,290 ± 50 nM,"REPRILSEEEQEMFRDFDYIADWC [PIFtide, reference compound]"
